Test [1] concerns Mycobacterium tuberculosis CDC1551 (intracellular, in murine BMDM). The test is described as follows: area under intracellular growth-inhibition dose-response curve (AUC (% inhibition x dose, relative)); higher = more potent. As to conditions: duration: 6 days; dose range: 0.13-80 uM, 8 points. A digest of the protocol: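 In 384-well opaque plates, primary murine bone marrow-derived macrophages were infected with luciferase-expressing M. tuberculosis CDC1551 (multiplicity of infection 1, 1 h) 24 h after seeding, then treated for 6 days across final concentrations of 80–0.13 μM. Growth was measured by Bright-Glo luciferin assay, normalised to a reference drug control and the lowest-concentration wells. The reported value is the area under the growth-inhibition dose–response curve from GraphPad Prism.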

The subject of test [2] is murine bone marrow-derived macrophages. Put plainly: area under cytotoxicity dose-response curve (AUC (% cytotoxicity x dose, relative)); higher = more cytotoxic. The settings on record: duration: 6 days; dose range: 0.13-80 uM, 8 points. In short, it runs like this:
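Cytotoxicity is expressed as the area under the dose–response curve from GraphPad Prism version 10. To obtain it, primary murine bone marrow-derived macrophages were incubated for 6 days at 37 °C in 5% CO2 across final concentrations of 80–0.13 μM. Viability came from CellTiter-Glo luminescence, and percent cytotoxicity was normalised to vehicle and positive control wells.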

As for `C=CCNc1nc(C(=O)OCC(=O)NCc2cccc(Cl)c2)cs1`, the “area under intracellular growth-inhibition dose-response curve” value in test [1] was less than 0. Moreover, the “area under cytotoxicity dose-response curve” value in test [2] came to 96.

Regarding `COc1ccccc1C(CNC(=O)c1ccc(-c2ccccc2Cl)o1)N1CCCC1` (stereo unspecified), the “area under intracellular growth-inhibition dose-response curve” value in test [1] amounted to 164. Besides, in test [2], the “area under cytotoxicity dose-response curve” value is 141.

`Clc1ccc(-c2nnc(C3CCCCC3)o2)cc1`: the “area under intracellular growth-inhibition dose-response curve” value in test [1] worked out at 212. In addition, in test [2], the “area under cytotoxicity dose-response curve” value was less than 0.

On to `CC(NC(=O)c1ccccc1)c1ccc(F)cc1` (stereo unspecified), for which, in test [1], the “area under intracellular growth-inhibition dose-response curve” value was 265. The “area under cytotoxicity dose-response curve” value in test [2] is less than 0.

For the compound `C/C(=N/NC(=O)c1ccncc1)c1ccccc1`, the “area under intracellular growth-inhibition dose-response curve” value in test [1] was found to be 243. Moreover, the “area under cytotoxicity dose-response curve” value in test [2] was less than 0.

With `CC(=O)c1c(C)[n+]([O-])c2cc(F)c(F)cc2[n+]1[O-]`, in test [1], the “area under intracellular growth-inhibition dose-response curve” value was determined as 45.9. Further, the “area under cytotoxicity dose-response curve” value in test [2] is 13.7.

For the compound `O=C(/C=C/c1ccc2c(c1)OCO2)N1CCCCC1`, in test [1], the “area under intracellular growth-inhibition dose-response curve” value came to 155. For the same compound, in test [2], the “area under cytotoxicity dose-response curve” value came out at 15.2.

Turning to `Sc1[nH]cnc2ncnc1-2`, in test [1], the “area under intracellular growth-inhibition dose-response curve” value was found to be 88.6. Also, in test [2], the “area under cytotoxicity dose-response curve” value was less than 0.

In the case of `CC(NC(=O)Nc1ccc(Br)cc1)C(C)(C)C` (stereo unspecified), in test [1], the “area under intracellular growth-inhibition dose-response curve” value was found to be 228. Besides, in test [2], the “area under cytotoxicity dose-response curve” value is 55.3.

For the compound `COc1ccc(/C=N/Nc2cc(C)nc3ccc(OC)cc23)c(OC)c1`, in test [1], the “area under intracellular growth-inhibition dose-response curve” value is 151. For the same compound, the “area under cytotoxicity dose-response curve” value in test [2] was 42.9.

`N=C(NCCCCCCNC(=N)NC(=N)Nc1ccc(Cl)cc1)NC(=N)Nc1ccc(Cl)cc1`: the “area under intracellular growth-inhibition dose-response curve” value in test [1] amounted to 89.5. In addition, in test [2], the “area under cytotoxicity dose-response curve” value is 165.

Turning to `Cc1ccc(C(=O)Sc2cccccc2=O)cc1`, the “area under intracellular growth-inhibition dose-response curve” value in test [1] is less than 0. Also, the “area under cytotoxicity dose-response curve” value in test [2] was found to be 143.

As to `O=C(NC1CCCCCC1)c1ccc(Br)o1`, in test [1], the “area under intracellular growth-inhibition dose-response curve” value was determined as 231. The “area under cytotoxicity dose-response curve” value in test [2] came to 27.7.

Take `O=C(/C=C/c1cccs1)N1CCN(Cc2ccc3c(c2)OCO3)CC1`: the “area under intracellular growth-inhibition dose-response curve” value in test [1] worked out at 271. Further, in test [2], the “area under cytotoxicity dose-response curve” value is less than 0.

As to `O=C(CCc1ccccc1)NC1C2CC3CC(C2)CC1C3` (stereo unspecified), in test [1], the “area under intracellular growth-inhibition dose-response curve” value came to 194. In addition, the “area under cytotoxicity dose-response curve” value in test [2] is 3.6.

As for `NC(=S)N/N=C/c1ccc(-n2nncc2-c2ccc(Cl)cc2)cc1`, the “area under intracellular growth-inhibition dose-response curve” value in test [1] worked out at 216. Moreover, the “area under cytotoxicity dose-response curve” value in test [2] was determined as 47.7.

Regarding `Cc1c([N+](=O)[O-])cc(C(=O)NCc2ccc(F)cc2)cc1[N+](=O)[O-]`, the “area under intracellular growth-inhibition dose-response curve” value in test [1] was 252. In test [2], the “area under cytotoxicity dose-response curve” value was less than 0.

For the compound `Cc1ccc(-n2c(C)cc(/C=N/NC(N)=S)c2C)cc1`, the “area under intracellular growth-inhibition dose-response curve” value in test [1] came out at 233. Further, the “area under cytotoxicity dose-response curve” value in test [2] came to 26.

For the compound `O=C(COc1ccccc1)N/N=C/c1ccc([N+](=O)[O-])o1`, in test [1], the “area under intracellular growth-inhibition dose-response curve” value was 209. In test [2], the “area under cytotoxicity dose-response curve” value came out at 14.3.

`CCNc1nc(NCC)nc(N/N=C/c2ccc([N+](=O)[O-])o2)n1`: the “area under intracellular growth-inhibition dose-response curve” value in test [1] came to 266. Moreover, the “area under cytotoxicity dose-response curve” value in test [2] is 18.

Take `O=C(COC(=O)CCCOc1ccc(Cl)cc1Cl)NCc1ccc(F)cc1`: the “area under intracellular growth-inhibition dose-response curve” value in test [1] was determined as 9.47. The “area under cytotoxicity dose-response curve” value in test [2] was found to be 40.6.

With `O=C(NC1CCCCCC1)c1ccco1`, the “area under intracellular growth-inhibition dose-response curve” value in test [1] was found to be 214. The “area under cytotoxicity dose-response curve” value in test [2] was 47.2.

As to `CCN1/C(=C/C(C)=C/c2sc3ccccc3[n+]2CC)Sc2ccccc21.[I-]`, the “area under intracellular growth-inhibition dose-response curve” value in test [1] amounted to 138. Further, in test [2], the “area under cytotoxicity dose-response curve” value amounted to 94.9.

Take `O=C(NCc1cccc(Cl)c1)c1cccc(S(=O)(=O)N2CCCCC2)c1`: the “area under intracellular growth-inhibition dose-response curve” value in test [1] came out at 60.1. Further, the “area under cytotoxicity dose-response curve” value in test [2] was less than 0.

In the case of `COc1ccc(C2=NCCn3c2c2ccc(C(F)(F)F)cc2[n+]3[O-])cc1`, the “area under intracellular growth-inhibition dose-response curve” value in test [1] came out at 95.2. Also, the “area under cytotoxicity dose-response curve” value in test [2] came out at 108.

Regarding `CN(Cc1ccccc1)c1ccc2nnc(-c3ccccc3)n2n1`, in test [1], the “area under intracellular growth-inhibition dose-response curve” value worked out at 169. In addition, the “area under cytotoxicity dose-response curve” value in test [2] was less than 0.

Take `CC(=O)Nc1cccc(/C(C)=N/NC(N)=S)c1`: the “area under intracellular growth-inhibition dose-response curve” value in test [1] amounted to 235. Besides, the “area under cytotoxicity dose-response curve” value in test [2] was less than 0.

On to `CCOc1ccc(NC(=S)Nc2ccc(OC)cc2)cc1`, for which the “area under intracellular growth-inhibition dose-response curve” value in test [1] is 233. Moreover, the “area under cytotoxicity dose-response curve” value in test [2] was 13.

As to `Cc1ccc(-c2cc(-c3ccccc3)cc(-c3ccccc3)[n+]2-c2ccccc2)cc1.[O-][Cl+3]([O-])([O-])[O-]`, the “area under intracellular growth-inhibition dose-response curve” value in test [1] came to 91.8. Moreover, the “area under cytotoxicity dose-response curve” value in test [2] was 23.7.

For the compound `Cn1c(=O)n(C)c2cc(/C=N/NC(N)=S)ccc21`, in test [1], the “area under intracellular growth-inhibition dose-response curve” value was 262. Also, the “area under cytotoxicity dose-response curve” value in test [2] was less than 0.

In the case of `O=C(Cc1ccc(Br)cc1)N1CCCC1`, the “area under intracellular growth-inhibition dose-response curve” value in test [1] was found to be 208. In test [2], the “area under cytotoxicity dose-response curve” value is less than 0.

`CCc1ccc(/C(C)=N/NC(=O)c2ccc(-n3cnnn3)cc2)cc1`: the “area under intracellular growth-inhibition dose-response curve” value in test [1] was less than 0. The “area under cytotoxicity dose-response curve” value in test [2] was determined as 24.6.

For the compound `COc1ccc(CNC(=O)c2c(C)nc3ccccn23)cc1`, the “area under intracellular growth-inhibition dose-response curve” value in test [1] was 268. In addition, the “area under cytotoxicity dose-response curve” value in test [2] was 8.66.

For `COc1ccccc1OCC(=O)N/N=C/C=C/c1ccc([N+](=O)[O-])o1`, in test [1], the “area under intracellular growth-inhibition dose-response curve” value is 73.2. Moreover, in test [2], the “area under cytotoxicity dose-response curve” value was less than 0.

Take `C=CCNC(=S)NNC(=O)CC12CC3CC(CC(C3)C1)C2`: the “area under intracellular growth-inhibition dose-response curve” value in test [1] is 222. In addition, the “area under cytotoxicity dose-response curve” value in test [2] was found to be 8.72.

`O=C(NC(CO)C(O)c1ccc([N+](=O)[O-])cc1)C(Cl)Cl` (stereo unspecified): in test [1], the “area under intracellular growth-inhibition dose-response curve” value was 113. For the same compound, the “area under cytotoxicity dose-response curve” value in test [2] amounted to 21.4.

On to `Cc1ccc(C2=NCCn3c2c2ccc([N+](=O)[O-])cc2[n+]3[O-])cc1`, for which the “area under intracellular growth-inhibition dose-response curve” value in test [1] worked out at 20.7. In test [2], the “area under cytotoxicity dose-response curve” value came out at 96.8.

`O=C(N/N=C/c1cccc2ccccc12)c1ccncc1`: the “area under intracellular growth-inhibition dose-response curve” value in test [1] is 262. Besides, the “area under cytotoxicity dose-response curve” value in test [2] was determined as 67.8.

Take `CCOc1cc(/C=N\Nc2nc(-c3ccc(C)cc3)c(NC(C)=O)s2)ccc1O`: in test [1], the “area under intracellular growth-inhibition dose-response curve” value stood at 256. For the same compound, in test [2], the “area under cytotoxicity dose-response curve” value was less than 0.

Take `CC[C@H]1OC(=O)[C@H](C)[C@@H](O[C@H]2C[C@@](C)(OC)[C@@H](O)[C@H](C)O2)[C@H](C)[C@@H](O[C@@H]2O[C@H](C)C[C@H](N(C)C)[C@H]2O)[C@](C)(O)C[C@@H](C)C(=NOCOCCOC)[C@H](C)[C@@H](O)[C@]1(C)O`: in test [1], the “area under intracellular growth-inhibition dose-response curve” value was determined as 204. In addition, the “area under cytotoxicity dose-response curve” value in test [2] was 7.74.

In the case of `Cc1cc(OCC(=O)N2CCCC2)ccc1Cl`, in test [1], the “area under intracellular growth-inhibition dose-response curve” value worked out at 220. For the same compound, in test [2], the “area under cytotoxicity dose-response curve” value was determined as 55.1.

Turning to `COc1ccc(CNc2nc3nc4c(c(O)n3n2)CCC4)cc1`, the “area under intracellular growth-inhibition dose-response curve” value in test [1] came out at 140. Besides, the “area under cytotoxicity dose-response curve” value in test [2] came to 15.2.

As for `CC1C/C(=C/c2ccncc2)C(=O)/C(=C/c2ccncc2)C1` (stereo unspecified), the “area under intracellular growth-inhibition dose-response curve” value in test [1] was less than 0. Besides, the “area under cytotoxicity dose-response curve” value in test [2] was 54.5.

For `CNC(=S)Nc1ccc(OCc2ccccc2)cc1`, the “area under intracellular growth-inhibition dose-response curve” value in test [1] amounted to 242. In addition, the “area under cytotoxicity dose-response curve” value in test [2] amounted to 75.3.

Regarding `O=C(COc1ccccc1)N1CCN(c2ccccc2)CC1`, the “area under intracellular growth-inhibition dose-response curve” value in test [1] came out at 122. Also, the “area under cytotoxicity dose-response curve” value in test [2] amounted to 10.

`Cn1nc(C(=O)OCC(=O)NCc2ccc(Cl)cc2)c2ccccc2c1=O`: the “area under intracellular growth-inhibition dose-response curve” value in test [1] was found to be 83. The “area under cytotoxicity dose-response curve” value in test [2] came to 4.5.

Regarding `O=C(CSc1nc2ccccc2s1)NCc1cc([N+](=O)[O-])ccc1O`, the “area under intracellular growth-inhibition dose-response curve” value in test [1] was 39.4. In addition, in test [2], the “area under cytotoxicity dose-response curve” value stood at 48.

Take `CC[C@H](CO)NCCN[C@H](CC)CO.Cl`: the “area under intracellular growth-inhibition dose-response curve” value in test [1] came to 68.5. In addition, the “area under cytotoxicity dose-response curve” value in test [2] amounted to 52.1.

Regarding `O=C(N/N=C/c1ccc(OCc2cnc(Cl)s2)cc1)c1ccncc1`, the “area under intracellular growth-inhibition dose-response curve” value in test [1] worked out at 238. Moreover, the “area under cytotoxicity dose-response curve” value in test [2] is 48.7.

Regarding `O=C(CSc1cccc[n+]1[O-])CSc1cccc[n+]1[O-]`, the “area under intracellular growth-inhibition dose-response curve” value in test [1] amounted to 29.1. In test [2], the “area under cytotoxicity dose-response curve” value was 9.55.

Regarding `Cc1cc(C(C)(C)C)cc(C)c1C[n+]1c2n(c3ccc(C(F)(F)F)cc31)CCCCC2.[Cl-]`, the “area under intracellular growth-inhibition dose-response curve” value in test [1] is 138. Moreover, the “area under cytotoxicity dose-response curve” value in test [2] was 120.

For `CCC(=O)N1CCN(c2ccc(NC(=S)NC(=O)COc3ccccc3)cc2)CC1`, in test [1], the “area under intracellular growth-inhibition dose-response curve” value was found to be 194. Also, in test [2], the “area under cytotoxicity dose-response curve” value is 76.2.

Regarding `Cc1ccc(S(=O)(=O)[O-])cc1.c1cnc2c(c1)ccc1ccc[nH+]c12`, the “area under intracellular growth-inhibition dose-response curve” value in test [1] is 94. In addition, the “area under cytotoxicity dose-response curve” value in test [2] was determined as 114.

The values are drawn from the supplement of paper PMC11997997.
